Experimental data as given in US4354039A, “Chlorocitric acids” (Hoffmann-La Roche Inc., priority 1981, dated 1982).
Several values for one entry are separate records, joined by “and”; a condition that tells them apart may be missing. Equal entries are not always repeated. Where two headings read alike, the source gives them in different places.

What was measured:
[1] = Body weight and food intake in meal-fed rats, oral, 17 day study (Example 21); format: in vivo, Charles River female rats; conditions: for CBWG, cumulative body weight gain / CFC, cumulative food consumption / FBW, final body weight: 17 days; for IBW, initial body weight: baseline
Protocol: Two month old Charles River female rats (Charles River Breeding Laboratories, Wilmington, Mass.) were individually housed in wire-bottomedcages in a temperature-regulated (22° C.) light-controlled room (12 hr light, 6 a.m. to 6 p.m. and 12 hr dark, 6 p.m. to 6 a.m.). […] On the 8th day, the animals were administered water or (-)-threo-chlorocitric acid at the indicated concentration by oral intubation 30 min before the 3 hr meal. Treatment was continued for 17 days. Food cups were weighed immediately after the meal. The amount of body weight gained and food consumed during the period was determined.

isolated rat hepatocytes = assay: Fatty acid and cholesterol synthesis and CO2 production in isolated hepatocytes (Example 23); format: cell-based, Female Charles River rats; conditions: for activity at 2000 µM: Rattus norvegicus, Hepatocyte, 1 h
Protocol: Female Charles River rats were fasted 48 hr, then meal-fed a 1% corn oil, 70% glucose diet for 7 to 14 days from 8 to 11 a.m. The isolated rat hepatocytes were prepared by perfusing the liver in situ. The hepatocytes were incubated in an oscillating water bath at 37° C. for 60 min. […] All incubations were done in triplicate and all experiments were repeated at least twice. […] The contents of the center well were transferred to scintillation counting fluid and ^14 CO2 content was determined. […] The media was then acidified, extracted with hexane, and the extract counted (to determine the rate of lipogenesis). The conversion of ^3 H2 O and [^14 C]alanine into fatty acids or sterols was determined in a PDS/3, Mark II liquid scintillation counting system.

[2] = Body composition of meal-fed rats, 16 day study (Example 20); format: in vivo, Charles River female rats; conditions: in words
Protocol: Two month old Charles River female rats (Charles River Breeding Laboratories, Wilmington, Mass.) were individually housed in wire-bottomedcages in a temperature-regulated (22° C.) light-controlled room (12 hr light, 6 a.m. to 6 p.m. and 12 hr dark, 6 p.m. to 6 a.m.). […] (1) control, (2) (-)-threo-chlorocitric acid (1.0 mmoles/kg, 227 mg/kg) administered by oral intubation 30 min before the 3 hr meal, and (3) (-)-threo-chlorocitric acid (1.1 mmoles/kg, 250 mg/kg as a dietary admixture for the 3 hr meal. Treatment was continued for 16 days. After 16 days of treatment, rats were killed by decapitation and blood was removed. […] C. Sullivan, et al, Am. J. Clinical Nutrition, 30 767 (1977). […] Total carcass lipid data are expressed in grams and percentages of carcass weight. An aliquot of saponified carcass extract was neutralized and total carcass nitrogen was determined using the Kjeldahl procedure described in "Hawks" Physiological Chemistry," B. L. Oser, ed., McGraw Book Co., New York, N.Y., 1965, page 1214. Carcass protein data are expressed in grams and percentages of carcass weight.

[3] = Chow, 0.25 mmoles (57 mg)/kg oral
[4] = Chow, 0.50 mmoles (114 mg)/kg oral
[5] = Chow, 1.00 mmoles (227 mg)/kg oral

O=C(O)C[C@@](O)(C(=O)O)[C@@H](Cl)C(=O)O [(-)-threo-Chlorocitric acid]
CBWG, cumulative body weight gain [1, 3]: -1 ± 4 g | CFC, cumulative food consumption [1, 3]: 186 ± 9 g | FBW, final body weight [1, 3]: 213 ± 7 g | IBW, initial body weight [1, 3]: 214 ± 7 g | CBWG, cumulative body weight gain [1, 4]: -32 ± 6 g | CFC, cumulative food consumption [1, 4]: 165 ± 9 g | FBW, final body weight [1, 4]: 177 ± 6 g | IBW, initial body weight [1, 4]: 209 ± 5 g | CBWG, cumulative body weight gain [1, 5]: -30 ± 7 g | CFC, cumulative food consumption [1, 5]: 130 ± 13 g | FBW, final body weight [1, 5]: 176 ± 11 g | IBW, initial body weight [1, 5]: 207 ± 3 g | IBW, initial body weight ([1]; G-70 diet, 0.25 mmoles (57 mg)/kg oral): 198 ± 4 g | IBW, initial body weight ([1]; G-70 diet, 0.50 mmoles (114 mg)/kg oral): 195 ± 4 g | IBW, initial body weight ([1]; G-70 diet, 1.00 mmoles (227 mg)/kg oral): 198 ± 3 g | CO2 Production, [14C]alanine converted (isolated rat hepatocytes; 2 mM, 60 min, 37° C., 2000 µM): 91 % of control | Cholesterol Synthesis, [14C]alanine converted (isolated rat hepatocytes; 2 mM, 60 min, 37° C., 2000 µM): 92 % of control | Fatty Acid Synthesis, 3H2O converted (isolated rat hepatocytes; 2 mM, 60 min, 37° C., 2000 µM): 95 % of control | Fatty Acid Synthesis, [14C]alanine converted (isolated rat hepatocytes; 2 mM, 60 min, 37° C., 2000 µM): 124 % of control and 96 % of control | activity at 2000 µM (isolated rat hepatocytes; 2 mM, 60 min, 37° C., read-out: CO2 Production, [14C]alanine converted): 83% | activity at 2000 µM (isolated rat hepatocytes; 2 mM, 60 min, 37° C., read-out: Cholesterol Synthesis, 3H2O converted): 116% | activity at 2000 µM (isolated rat hepatocytes; 2 mM, 60 min, 37° C., read-out: Cholesterol Synthesis, [14C]alanine converted): 88% | activity at 2000 µM (isolated rat hepatocytes; 2 mM, 60 min, 37° C., read-out: Fatty Acid Synthesis, 3H2O converted): 106% | inhibition of lipid (fatty acid) and cholesterol syntheses (isolated rat hepatocytes; in words): devoid of metabolic activity as an inhibitor of lipid and cholesterol syntheses | weight loss, carcass analysis [2]: weight loss was due to reduction in body lipids
